Test results: US8420119B2, “Drug composition for treating tumor with polymeric micelle encapsulating anti-neoplastic” (Industrial Technology Research Institute, priority 2009, dated 2013)
Values after ≈ are worked out from the molar mass of the structure shown.

What was measured:
[1] = In vivo kinetic test of SN38; parameters: species or system SD mice; settings: for lactone form SN38 in plasma: 4 mg/kg SN38 vein injection
Experimental: The concentrations of lactone form SN38 in bloods over the time were then determined by HPLC.
T1/2 (hr), AUCINF(hr*ng/ml), CL(mL/hr/kg), and Vss (mL/kg) in Table 7 represent half-life time, […], area under the curve to infinity, clearance, and volume of distribution at steady state, and the units thereof, respectively. The n represents sample number. These parameters can be measured and/or calculated according to the techniques known in the art.

A549 = assay: MTT assay A549; type: cell-based, human; settings: Lung, A549, 72 hours
Experimental: (§1) Various human cancer lines, such as A549, AS2, and H460, were implanted onto multi-well plates and Dulbecco's Modified Eagle Media (high glucose) with 10% of fetal bovine serum and 1% of P/S being added to each well. […] Then a 20 μL of 0.5 mg/ml MTT (3-(4,5-dimethylthiazol-2-yl)-2,5-diphenyltetrazolium bromide) solution was added to each well to start the reaction. After 2 hours, the suspension of each well was removed and DMSO was added into the well to dissolve formazan, which was formed during the reaction. The living cell concentration was then obtained by analyzing the OD570 and OD600 data of each well.

AS2 = assay: MTT assay AS2; type: cell-based, human; settings: Lung, AS2, 72 hours
Experimental: as §1

H460 = assay: MTT assay H460; type: cell-based, human; settings: Lung, H460, 72 hours
Experimental: as §1

HT29 = assay: MTT assay HT29; type: cell-based, human; settings: Colorectal, HT29, 72 hours
Experimental: as §1

Colo 205 = assay: MTT assay Colo 205; type: cell-based, human; settings: Colorectal, Colo 205, 72 hours
Experimental: as §1

hepG2/C3A = assay: MTT assay hepG2/C3A; type: cell-based, human; settings: Liver, 72 hours
Experimental: as §1

SK-HEP-1 = assay: MTT assay SK-HEP-1; type: cell-based, human; settings: Liver, SK-HEP-1, 72 hours
Experimental: as §1

AGS = assay: MTT assay AGS; type: cell-based, human; settings: Stomach, 72 hours
Experimental: as §1

PC-3 = assay: MTT assay PC-3; type: cell-based, human; settings: Prostate, PC-3, 72 hours
Experimental: as §1

U-87 MG = assay: MTT assay U-87 MG; type: cell-based, human; settings: Brain, 72 hours
Experimental: as §1

MCF-7 = assay: MTT assay MCF-7; type: cell-based, human; settings: Breast, MCF-7, 72 hours
Experimental: as §1

OVCAR-3 = assay: MTT assay OVCAR-3; type: cell-based, human; settings: Ovarian, OVCAR-3, 72 hours
Experimental: as §1

5637 = assay: MTT assay 5637; type: cell-based, human; settings: Bladder, 5637, 72 hours
Experimental: as §1

RPMI2650 = assay: MTT assay RPMI2650; type: cell-based, human; settings: Nasalseptum, RPMI2650, 72 hours
Experimental: as §1

SCC-25 = assay: MTT assay SCC-25; type: cell-based, human; settings: Tongue, SCC-25, 72 hours
Experimental: as §1

[2] = plasma SN38, 4 mg/kg vein injection

CCc1c2c(nc3ccc(O)cc13)-c1cc3c(c(=O)n1C2)COC(=O)[C@]3(O)CC [SN38, 7-ethyl-10-hydroxycamptothecin]
lactone form SN38 in plasma ([1]; 0.1 Hour(s)): 710.8 ng/mL | lactone form SN38 in plasma ([1]; 0.2 Hour(s)): 505.3 ng/mL | lactone form SN38 in plasma ([1]; 0.3 Hour(s)): 265.3 ng/mL | lactone form SN38 in plasma ([1]; 0.500 Hour(s)): 143.4 ng/mL | lactone form SN38 in plasma ([1]; 1.0 Hour(s)): 32.3 ng/mL | lactone form SN38 in plasma ([1]; 2.0 Day(s)): 12.5 ng/mL | lactone form SN38 in plasma ([1]; 4.0 Day(s)): 9.0 ng/mL | lactone form SN38 in plasma ([1]; 8.0 Day(s)): 7.3 ng/mL | lactone form SN38 in plasma ([1]; 24.0 Day(s)): 1.0 ng/mL | AUCINF [1, 2]: 417 ng·h/mL | CL [1, 2]: 41.5 mL/min/kg | T1/2 [1, 2]: 6.2 h | Vss [1, 2]: 34.3 L/kg | IC50 (A549): 0.01387 ± 0.00123 µg/mL (≈ 0.0353 µM) | IC50 (AS2): 0.00176 ± 0.00023 µg/mL (≈ 0.00449 µM) | IC50 (H460): 0.00318 ± 0.00026 µg/mL (≈ 0.0081 µM) | IC50 (HT29): 0.0034 µg/mL (≈ 0.00866 µM) | IC50 (Colo 205): 0.00563 ± 0.00096 µg/mL (≈ 0.0143 µM) | IC50 (hepG2/C3A): 0.0287 ± 0.0092 µg/mL (≈ 0.0731 µM) | IC50 (SK-HEP-1): 0.01521 ± 0.00133 µg/mL (≈ 0.0388 µM) | IC50 (AGS): 0.04022 ± 0.01424 µg/mL (≈ 0.102 µM) | IC50 (PC-3): 0.0959 ± 0.02127 µg/mL (≈ 0.244 µM) | IC50 (U-87 MG): 0.01022 ± 0.0026 µg/mL (≈ 0.026 µM) | IC50 (MCF-7): 0.06093 ± 0.04886 µg/mL (≈ 0.155 µM) | IC50 (OVCAR-3): 0.02273 ± 0.00214 µg/mL (≈ 0.0579 µM) | IC50 5637: 0.00036 ± 3e-05 µg/mL (≈ 0.000917 µM) | IC50 (RPMI2650): 0.00097 ± 7e-05 µg/mL (≈ 0.00247 µM) | IC50 (SCC-25): 0.01971 ± 0.01128 µg/mL (≈ 0.0502 µM)
